Among the data in patent US20260297042A1, “BIARYLAMIDE DERIVATIVES AND THEIR USE AS PKMYT1 INHIBITORS” (CANCER RESEARCH TECHNOLOGY LIMITED, priority 2023, published 2026) are IC50 values, retold here.

Each structure is given as a SMILES string.

The target of this assay is T1, Cellular PKMYT1 Biomarker CDK1 pT14 (Homo sapiens, UniProt Q99640).
T1 construct: read-out CDK1 phospho-T14 immunoblot
T1 sequence (Q99640 1-499): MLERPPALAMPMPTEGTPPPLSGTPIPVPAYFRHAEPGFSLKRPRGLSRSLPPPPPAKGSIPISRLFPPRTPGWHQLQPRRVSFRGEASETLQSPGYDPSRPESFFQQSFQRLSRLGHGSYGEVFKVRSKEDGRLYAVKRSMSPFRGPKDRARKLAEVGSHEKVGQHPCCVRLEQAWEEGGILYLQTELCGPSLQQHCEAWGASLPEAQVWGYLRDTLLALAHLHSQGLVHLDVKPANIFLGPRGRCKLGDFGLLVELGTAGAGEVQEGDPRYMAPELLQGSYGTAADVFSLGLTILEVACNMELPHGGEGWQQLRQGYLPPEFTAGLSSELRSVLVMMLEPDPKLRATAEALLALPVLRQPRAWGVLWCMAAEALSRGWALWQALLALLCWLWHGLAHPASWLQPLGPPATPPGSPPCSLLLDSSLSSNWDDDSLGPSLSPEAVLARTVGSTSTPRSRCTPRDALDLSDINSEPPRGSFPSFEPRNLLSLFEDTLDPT
Description: Inhibition of cellular PKMYT1 biomarker CDK1 pT14 in OVCAR 3 cells (immunoblot). In kind it is cell-based. Conditions: 20 hours incubation. An outline of the steps:
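Confluent OVCAR 3 cells treated with a compound concentration range for 20 h at 37 °C. Lysates analysed by automated capillary immunoblot for CDK1 phospho-T14, with vinculin, fluorescence detection; IC50 by regression.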
On the technique in general: A western blot detects proteins with antibodies after separation by electrophoresis.

On to `CCN(CC)C(=O)Cn1cc(C)c(Nc2ncc(C(=O)Nc3c(C)ccc(O)c3C)s2)n1` [BAA-207, 2-[[1-[2-(diethylamino)-2-oxo-ethyl]-4-methyl-pyrazol-3-yl]amino]-N-(3-hydroxy-2,6-dimethyl-phenyl)thiazole-5-carboxamide], for which the IC50 – broadly, the concentration that inhibits the measured activity by half – was < 100 nM.
